Patent US20230303575A1, “FGFR AND MUTATION INHIBITOR THEREOF, PREPARATION METHOD THEREFOR AND USE THEREOF” (Abbisko Therapeutics Co., Ltd., priority 2020, published 2023)

Columns and labels:
Type in all cases: cell-based
[1] = target: T1, FGFR2 V564F (Homo sapiens, UniProt P21802, V564F); test: Cell proliferation assay for Tel-FGFR2 V564F in BaF3; settings: BaF3 cells expressing FGFR2 V564F fusion, 48 hrs, CellTiter Glo
T1 construct: P41212 (Transcription factor ETV6)
Procedure: (§1) By transfection, cell strains of the intracellular kinase domain fusion protein of TEL-FGFR2 WT or the intracellular domain fusion proteins containing FGFR2 V564, V564F, V564L, N549K and K659M mutations were stably expressed in Baf cells. On day 1, the cell suspension was plated into a 96-well plate containing growth medium (DMEM containing 1% Glutamax, 10% FBS and 1% Pen/Strep) at 2000-4000 cells/90 μL/per well, and then the mixture was incubated overnight at 37° C. and 5% CO2. On day 2, 10 μL of growth medium containing a 10-fold stock solution of test compound was added to the cell culture (9 dose points, 3× serial dilution, starting from 1 μM, finally 0.3% DMSO). After incubation at 37° C. and 5% CO2 for 48 hrs, 50 μL of CellTiter Glo (CTG) reagent was added to the cell-containing 96-well plate on day 3, and the plate was then incubated at room temperature for 10 min. Then relative light units (RLUs) were measured on a microplate reader with a luminescence detection module. RLU values were normalized to % survival, and concentration-response curves were plotted using Prism to calculate IC50 (nM).

[2] = target: T2, FGFR3 V555M (Homo sapiens, UniProt P22607, V555M); test: Cell proliferation assay for FGFR3 V555M in BaF3; settings: BaF3 cells expressing FGFR3 V555M fusion, 48 hrs, CellTiter Glo
T2 construct: P41212 (Transcription factor ETV6)
Procedure: For the compounds of the Examples of the present invention, cell strains of TEL-FGFR3 WT intracellular kinase domain fusion protein or intracellular domain fusion protein containing FGFR3 V555M or FGFR3 N540K mutation were stably expressed in Baf cells by transfection and were used to determine the cell proliferation effect of BaF3-Tel-FGFR3 WT. FGFR3 V555M or FGFR3 N540K. The specific test process was as follows: • 1) The cell suspension was plated into a 96-well plate containing growth medium (DMEM containing 1% Glutamax, 10% FBS and 1% Pen/Strep) at 2000-4000 cells/90 μL/per well, and then the mixture was incubated overnight at 37° C. and 5% CO2. • 2) 10 μL of growth medium containing a 10-fold stock solution of test compound was added to the cell culture (9 dose points, 3× serial dilution, starting from 1 μM, finally 0.3% DMSO). • 3) The mixture was incubated at 37° C. and 5% CO2 for 48 hrs. • 4) 50 μL of CellTiter Glo (CTG) reagent was added to the cell-containing 96-well plate, and the plate was then incubated at room temperature for 10 min. • 5) Relative light units (RLUs) were measured on a microplate reader with a luminescence detection module. RLU values were normalized to % survival, and concentration-response curves were plotted using Prism to calculate IC50 (nM).

[3] = target: T3, FGFR2 V564L (Homo sapiens, UniProt P21802, V564L); test: Cell proliferation assay for Tel-FGFR2 V564L in BaF3; settings: BaF3 cells expressing FGFR2 V564L fusion, 48 hrs, CellTiter Glo
T3 construct: P41212 (Transcription factor ETV6)
Procedure: as §1

[4] = target: T4, FGFR2 N549K (Homo sapiens, UniProt P21802, N549K); test: Cell proliferation assay for Tel-FGFR2 N549K in BaF3; settings: BaF3 cells expressing FGFR2 N549K fusion, 48 hrs, CellTiter Glo
T4 construct: P41212 (Transcription factor ETV6)
Procedure: as §1

T1 sequence (P21802 481-770 V564F limits assumed): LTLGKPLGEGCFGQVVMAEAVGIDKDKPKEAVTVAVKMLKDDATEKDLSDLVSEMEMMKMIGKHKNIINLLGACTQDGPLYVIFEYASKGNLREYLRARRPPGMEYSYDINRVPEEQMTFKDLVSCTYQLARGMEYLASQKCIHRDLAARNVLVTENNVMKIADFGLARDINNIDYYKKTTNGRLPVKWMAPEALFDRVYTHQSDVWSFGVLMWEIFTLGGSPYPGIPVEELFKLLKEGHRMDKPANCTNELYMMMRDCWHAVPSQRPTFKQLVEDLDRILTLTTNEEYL
T2 sequence (P22607 472-761 V555M limits assumed): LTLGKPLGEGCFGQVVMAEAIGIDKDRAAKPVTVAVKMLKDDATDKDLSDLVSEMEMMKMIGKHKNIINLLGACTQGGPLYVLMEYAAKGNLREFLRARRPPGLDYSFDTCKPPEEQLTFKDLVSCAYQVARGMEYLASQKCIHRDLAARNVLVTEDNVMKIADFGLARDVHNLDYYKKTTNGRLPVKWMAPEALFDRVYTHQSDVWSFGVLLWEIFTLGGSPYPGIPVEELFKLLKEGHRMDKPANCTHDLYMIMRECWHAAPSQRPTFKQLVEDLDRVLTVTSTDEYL
T4 sequence (P21802 481-770 N549K limits assumed): as the sequence (P21802 481-770 V564F limits assumed) above, with N69K, F84V counted along it
T3 sequence (P21802 481-770 V564L limits assumed): as the sequence (P21802 481-770 V564F limits assumed) above, with F84L counted along it

Row | SMILES | IC50 [1] | IC50 [2] | IC50 [3] | IC50 [4]
1 | C=CC(=O)N1CC[C@H](n2cc(C#Cc3cc4nc(C(F)(F)F)oc4cc3F)c3c(N)ncnc32)C1 [Example 72, (S)-1-(3-(4-amino-5-((6-fluoro-2-(trifluoromethyl)benzo[d]oxazol-5-yl)ethynyl)-7H-pyrrolo[2,3-d]pyrimidin-7-yl)pyrrolidin-1-yl) prop-2-en-1-one] | 5 to 50 nM | 50 to 500 nM | – | –
2 | C=CC(=O)N1CC[C@H](n2nc(C#Cc3cc4nc(NC)oc4cc3F)c3c(N)ncnc32)C1 [Example 29, (S)-1-(3-(4-amino-3-((6-fluoro-2-(methylamino)benzo[d]oxazol-5-yl)ethynyl)-1H-pyrazolo[3,4-d]pyrimidin-1-yl)pyrrolidin-1-yl) prop-2-en-1-one] | 0.5 to 5 nM | 5 to 50 nM | – | –
3 | C=CC(=O)N1CC[C@H](n2nc(C#Cc3cc4nc(N5CCC5)oc4cc3F)c3c(N)ncnc32)C1 [Example 34, (S)-1-(3-(4-amino-3-((2-(azetidin-1-yl)-6-fluorobenzo [d]oxazol-5-yl)ethynyl)-1H-pyrazolo[3,4-d]pyrimidin-1-yl)pyrrolidin-1-yl) prop-2-en-1-one] | 0.5 to 5 nM | 0.5 to 5 nM | – | –
4 | C=CC(=O)N1CC[C@H](n2nc(C#Cc3cc4nc(N(C)C)oc4cc3F)c3c(N)ncnc32)C1 [Example 31, (S)-1-(3-(4-amino-3-((2-(dimethylamino)-6-fluoro-benzo[d]oxazol-5-yl)ethynyl)-1H-pyrazolo[3,4-d]pyrimidin-1-yl)pyrrolidin-1-yl)prop-2-en-1-one] | 0.5 to 5 nM | 5 to 50 nM | – | –
5 | C=CC(=O)N1CC[C@H](n2nc(C#Cc3ccc4oc(C5(C)CC5)nc4c3)c3c(N)ncnc32)C1 [Example 39, (S)-1-(3-(4-amino-3-((2-(1-methylcyclopropyl)benzo [d]oxazol-5-yl)ethynyl)-1H-pyrazolo[3,4-d]pyrimidin-1-yl)pyrrolidin-1-yl) prop-2-en-1-one] | 0.5 to 5 nM | – | – | –
6 | C=CC(=O)N1CC[C@H](n2nc(C#Cc3cc4nc(NCC)oc4cc3F)c3c(N)ncnc32)C1 [Example 30, (S)-1-(3-(4-amino-3-((2-(ethylamino)-6-fluorobenzo [d]oxazol-5-yl)ethynyl)-1H-pyrazolo[3,4-d]pyrimidin-1-yl)pyrrolidin-1-yl) prop-2-en-1-one] | 0.5 to 5 nM | 5 to 50 nM | – | –
7 | C=CC(=O)N1CC[C@H](n2nc(C#Cc3cc4nc(C5CCC5)oc4cc3F)c3c(N)ncnc32)C1 [Example 38, (S)-1-(3-(4-amino-3-((2-cyclobutyl-6-fluorobenzo [d]oxazol-5-yl)ethynyl)-1 H-pyrazolo[3,4-d]pyrimidin-1-yl)pyrrolidin-1-yl) prop-2-en-1-one] | 0.5 to 5 nM | 5 to 50 nM | – | –
8 | C=CC(=O)N1CC[C@H](n2nc(C#Cc3cc4nc(NC5CC5)oc4cc3F)c3c(N)ncnc32)C1 [Example 33, (S)-1-(3-(4-amino-3-((2-(cyclopropylamino)-6-fluorobenzo[d]oxazol-5-yl)ethynyl)-1H-pyrazolo[3,4-d]pyrimidin-1-yl)pyrrolidin-1-yl)prop-2-en-1-one] | 0.5 to 5 nM | 50 to 500 nM | – | –
9 | C=CC(=O)N1CCC(c2cc(C#Cc3ccc4sc(C)nc4c3)c3c(N)ncnn23)C1 (stereo not shown) [Example 70, 1-(3-(4-amino-5-((2-methyl-benzo[d]thiazol-5-yl)ethynyl)pyrrolo[2,1-f][1,2,4]triazin-7-yl)pyrrolidin-1-yl) prop-2-en-1-one] | 0.5 to 5 nM | – | – | –
10 | C=CC(=O)N1CC[C@H](n2cc(C#Cc3ccc4oc(C(F)(F)F)nc4c3)c3c(N)ncnc32)C1 [Example 76, (S)-1-(3-(4-amino-5-((2-(trifluoromethyl)benzo[d]oxazol-5-yl)ethynyl)-7H-pyrrolo[2,3-d]pyrimidin-7-yl)pyrrolidin-1-yl)prop-2-en-1-one] | – | 50 to 500 nM | – | –
11 | C=CC(=O)N1CC[C@H](n2nc(C#Cc3cc4nc(C(F)F)sc4cc3F)c3c(N)ncnc32)C1 [Example 60, (S)-1-(3-(4-amino-3-((2-(difluoromethyl)-6-fluoro-benzo[d]thiazol-5-yl)ethynyl)-1H-pyrazolo[3,4-d]pyrimidin-1-yl)pyrrolidin-1-yl)prop-2-en-1-one] | 0.5 to 5 nM | – | – | –
12 | C=CC(=O)N1CC[C@H](n2cc(C#Cc3cc4nc(C(F)F)sc4cc3F)c3c(N)ncnc32)C1 [Example 50, (S)-1-(3-(4-amino-5-((2-(difluoromethyl)-6-fluoro-benzo[d]thiazol-5-yl)ethynyl)-7H-pyrrolo[2,3-d]pyrimidin-7-yl)pyrrolidin-1-yl) prop-2-en-1-one] | 0.5 to 5 nM | 5 to 50 nM | – | –
13 | C=CC(=O)N1CC[C@H](n2cc(C#Cc3ccc4sc(C5CC5)nc4c3)c3c(N)ncnc32)C1 [Example 43, (S)-1-(3-(4-amino-5-((2-cyclopropylbenzo[d]thiazol-5-yl)ethynyl)-7H-pyrrolo [2,3-d]pyrimidin-7-yl)pyrrolidin-1-yl)prop-2-en-1-one] | 0.5 to 5 nM | – | – | –
14 | C=CC(=O)N1CCC(c2cc(C#Cc3ccc4oc(C5CC5)nc4c3)c3c(N)ncnn23)C1 (stereo not shown) [Example 63, 1-(3-(4-amino-5-((2-cyclo-propylbenzo[d]oxazol-5-yl)ethynyl)pyrrolo[2,1-f][1,2,4]triazin-7-yl)pyrrolidin-1-yl)prop-2-en-1-one] | 0.5 to 5 nM | 5 to 50 nM | – | –

Second part, the compound after the results:

Row | IC50 [1] | IC50 [2] | IC50 [3] | IC50 [4] | SMILES
15 | 0.5 to 5 nM | – | – | – | C=CC(=O)N1CC[C@H](n2cc(C#Cc3ccc4oc(C(C)C)nc4c3)c3c(N)ncnc32)C1 [Example 4, (S)-1-(3-(4-amino-5-((2-isopropylbenzo[d]oxazol-5-yl)ethynyl)-7H-pyrrolo[2,3-d]pyrimidin-7-yl)pyrrolidin-1-yl)prop-2-en-1-one]
16 | 0.5 to 5 nM | – | – | – | C=CC(=O)N1CC[C@H](n2cc(C#Cc3ccc4oc(C5CCC5)nc4c3)c3c(N)ncnc32)C1 [Example 5, (S)-1-(3-(4-amino-5-((2-cyclobutylbenzo[d]oxazol-5-yl)ethynyl)-7H-pyrrolo [2,3-d]pyrimidin-7-yl)pyrrolidin-1-yl)prop-2-en-1-one]
17 | ≤ 0.5 nM | 0.5 to 5 nM | – | – | C=CC(=O)N1CC[C@H](n2cc(C#Cc3cc4nc(C5CC5)oc4cc3F)c3c(N)ncnc32)C1 [Example 65, (S)-1-(3-(4-amino-5-((2-cyclopropyl-6-fluorobenzo [d]oxazol-5-yl)ethynyl)-7H-pyrrolo[2,3-d]pyrimidin-7-yl)pyrrolidin-1-yl)prop-2-en-1-one]
18 | ≤ 0.5 nM | 5 to 50 nM | – | – | C=CC(=O)N1CC[C@H](n2cc(C#Cc3cc4nc(C)sc4cc3F)c3c(N)ncnc32)C1 [Example 47, (S)-1-(3-(4-amino-5-((6-fluoro-2-methylbenzo[d]thiazol-5-yl)ethynyl)-7H-pyrrolo[2,3-d]pyrimidin-7-yl)pyrrolidin-1-yl)prop-2-en-1-one]
19 | 0.5 to 5 nM | 5 to 50 nM | 5 to 50 nM | 0.5 to 5 nM | C=CC(=O)N1CC[C@H](n2cc(C#Cc3ccc4oc(C(F)F)nc4c3)c3c(N)ncnc32)C1 [Example 71, (S)-1-(3-(4-amino-5-((2-(difluoromethyl)benzo[d]oxazol-5-yl)ethynyl)-7H-pyrrolo[2,3-d]pyrimidin-7-yl)pyrrolidin-1-yl)prop-2-en-1-one]
20 | ≤ 0.5 nM | 0.5 to 5 nM | – | – | C=CC(=O)N1CC[C@H](n2cc(C#Cc3c(F)cc4oc(N5CCC5)nc4c3F)c3c(N)ncnc32)C1 [Example 73, (S)-1-(3-(4-amino-5-((2-(azetidin-1-yl)-4,6-difluoro-benzo[d]oxazol-5-yl)ethynyl)-7H-pyrrolo[2,3-d]pyrimidin-7-yl)pyrrolidin-1-yl) prop-2-en-1-one]
21 | ≤ 0.5 nM | 0.5 to 5 nM | – | – | C=CC(=O)N1CC[C@H](n2nc(C#Cc3cc4nc(C5CC5)oc4cc3F)c3c(N)ncnc32)C1 [Example 35, (S)-1-(3-(4-amino-3-((2-cyclopropyl-6-fluorobenzo [d]oxazol-5-yl)ethynyl)-1H-pyrazolo[3,4-d]pyrimidin-1-yl)pyrrolidin-1-yl) prop-2-en-1-one]
